Entries after “also recorded” stand apart in the source; their conditions may differ.
Tests used:
[1] = biological target: T1, Cereblon-DDB1 (Homo sapiens, UniProt Q96SW2); test: hydrogen-deuterium exchange mass spectrometry (HDX-MS) of Cereblon-DDB1 peptides; set-up: made in house; settings: compared with unliganded DDB1-Cereblon; result in words
Method: For peptide identification, differential HDX-MS experiments were conducted as previously described with a few modifications (Chalmers, M. J., et al. (2006). Probing protein ligand interactions by automated hydrogen/deuterium exchange mass spectrometry. Analytical Chemistry, 78(4), 1005-1014). Peptides were identified using tandem MS (MS/MS) with an Orbitrap mass spectrometer (Q Exactive, ThermoFisher). Product ion spectra were acquired in data-dependent mode with the top five most abundant ions selected for the product ion analysis per scan event. The MS/MS data files were submitted to Mascot (Matrix Science) for peptide identification. […] The MASCOT search was repeated against a decoy (reverse) sequence and ambiguous identifications were ruled out and not included in the HDX peptide set. […]
Mass spectrometric data were acquired using an Orbitrap mass spectrometer (Exactive, ThermoFisher). […] The intensity weighted mean m/z centroid value of each peptide envelope was calculated and subsequently converted into a percentage of deuterium incorporation. […] Statistical significance for the differential HDX data is determined by an unpaired t-test for each time point, a procedure that is integrated into the HDX Workbench software (Pascal, B. D., et al. (2012). HDX workbench: software for the analysis of H/D exchange MS data. Journal of the American Society for Mass Spectrometry, 23(9), 1512-1521.). […]

[2] = biological target: T2, Ikaros/Cereblon/DDB1 (Homo sapiens, UniProt Q96SW2); test: cryo-EM of drug-mediated Ikaros recruitment to Cereblon-DDB1; settings: wild-type Cereblon/DDB1, FIG. 4C; result in words
T2 construct: human cereblon (amino acids 5-442); ZZ-domain-6×His-thrombin site (cleaved yes); made in house; host or cells: SF9 insect cells (CRBN-DDB1); E. coli BL21 (DE3) Star (Ikaros)
Method: (§1) Frozen 20 mg/mL cereblon-DDB1 complexes were thawed and diluted to 5 mg/mL with buffer containing 20 mM HEPES pH 7, 150 mM NaCl, 3 mM TCEP. Immediately prior to plunge-freezing in liquid ethane, samples are diluted 10-fold in the same buffer supplemented with 0.011% Lauryl Maltose-Neopentyl Glycol (LMNG) to limit complex dissociation. Quantifoil 300 mesh R1.2/1.3 UltrAuFoil Holey Gold Films were plasma cleaned for 7 seconds using a Solarus plasma cleaner (Gatan, Inc.) with a 75% nitrogen, 25% oxygen atmosphere at 15 W. Immediately prior to sample application, grids are further pre-treated with 4 μL solution containing 10 μM cereblon binding-deficient mutant Ikaros residues 140-196 Q146A G151N and blotted from behind with torn Whatman 1 filter paper. 4 μL dilute sample is applied, excess sample was blotted away for 4 s and vitrified by manual plunge freezing into a liquid ethane pool cooled by liquid nitrogen using a manual plunger in a 4° C. cold room >95% humidity. Samples containing IMiDs are prepared the same way, with 10× molar equivalent of drug yielding a buffer concentration 20 mM HEPES pH 7, 150 mM NaCl, 3 mM TCEP, <1% DMSO mixed 2 minutes prior to dilution and application to the grid. Similarly, Ikaros samples are prepared by incubation of 2-fold molar excess Ikaros 2 minutes prior to dilution and application to the grid. […]

[3] = biological target: T1, Cereblon-DDB1; test: cryo-EM population analysis of open/closed Cereblon conformers with saturating IMiD/CELMoD; set-up: human cereblon (amino acids 5-442); ZZ-domain-6×His-thrombin site (cleaved yes); made in house; host or cells: SF9 insect cells; settings: wild-type Cereblon-DDB1, saturating amount of drug, cryo-EM single-particle analysis
Method: as §1

[4] = biological target: Cereblon (Homo sapiens, UniProt Q96SW2); test: Cereblon binding affinity; settings: CELMoD affinity for Cereblon compared with Pomalidomide/IMiD
[5] = biological target: T3, P98A Cereblon-DDB1 (Homo sapiens, UniProt Q96SW2, P98A); test: cryo-EM of P98A mutant Cereblon saturated with drug along with Ikaros; settings: for conformation of P98A Cereblon in presence of drug (open/closed) / recruitment of Ikaros Zf 2-3 to P98A mutant Cereblon: result in words; for recruitment of Ikaros Zf 2-3 to P98A mutant Cereblon: FIG. 9
T3 construct: human cereblon (amino acids 5-442); ZZ-domain-6×His-thrombin site (cleaved yes); made in house; host or cells: SF9 insect cells (CRBN-DDB1, by 'as before'); E. coli BL21 (DE3) Star (Ikaros)
Method: Frozen 20 mg/mL cereblon-DDB1 complexes were thawed and diluted to 5 mg/mL with buffer containing 20 mM HEPES pH 7, 150 mM NaCl, 3 mM TCEP. Immediately prior to plunge-freezing in liquid ethane, samples are diluted 10-fold in the same buffer supplemented with 0.011% Lauryl Maltose-Neopentyl Glycol (LMNG) to limit complex dissociation. Quantifoil 300 mesh R1.2/1.3 UltrAuFoil Holey Gold Films were plasma cleaned for 7 seconds using a Solarus plasma cleaner (Gatan, Inc.) with a 75% nitrogen, 25% oxygen atmosphere at 15 W. Immediately prior to sample application, grids are further pre-treated with 4 μL solution containing 10 μM cereblon binding-deficient mutant Ikaros residues 140-196 Q146A G151N and blotted from behind with torn Whatman 1 filter paper. 4 μL dilute sample is applied, excess sample was blotted away for 4 s and vitrified by manual plunge freezing into a liquid ethane pool cooled by liquid nitrogen using a manual plunger in a 4° C. cold room >95% humidity. Samples containing IMiDs are prepared the same way, with 10× molar equivalent of drug yielding a buffer concentration 20 mM HEPES pH 7, 150 mM NaCl, 3 mM TCEP, <1% DMSO mixed 2 minutes prior to dilution and application to the grid. Similarly, Ikaros samples are prepared by incubation of 2-fold molar excess Ikaros 2 minutes prior to dilution and application to the grid.
Cryo-EM data were collected on a Thermo-Fisher Talos Arctica transmission electron microscope operating at […] using parallel illumination conditions. Micrographs were acquired using a Gatan K2 Summit direct electron detector, operated in electron counting mode applying a total electron exposure of […]. The Leginon data collection software was used to collect 2912 micrographs at 36,000× nominal magnification (1.15 Å/pixel at the specimen level) with a nominal defocus set to −1.5 μm. Variation from the nominally set defocus due to a ˜5% tilt in the stage gave rise to a defocus range (this tilt was not intentional and required service to correct). Stage movement was used to target the center of sixteen 1.2 μm holes for focusing, and an image shift was used to acquire high magnification images in the center of each of the sixteen targeted holes.

[6] = P98A mutant Cereblon, saturated with drug along with Ikaros

| recruitment of Ikaros ZF1-2-3 to CRBN^closed [2] | particles adopting CRBN^closed conformation [3] [%] | improved affinity [4] | SMILES | change in solvent accessibility (HDX differential) upon addition of drug [1] | particles adopting CRBN^closed conformation with Ikaros bound [5, 6] [%] | conformation of P98A Cereblon in presence of drug (open/closed) [5, 6] | recruitment of Ikaros Zf 2-3 to P98A mutant Cereblon [5] |
| --- | --- | --- | --- | --- | --- | --- | --- |
| is recruited to CRBN^closed | ~50 | approximately 20 fold | O=C1CC[C@H](N2Cc3c(OCc4ccc(CN5CCOCC5)cc4)cccc3C2=O)C(=O)N1 [Compound 1, (S)-3-(4-((4-(morpholinomethyl)benzyl)oxy)-1-oxoisoindolin-2-yl)piperidine-2,6-dione] | affected solvency for both the sensor loop and residues within the Lon domain and HB |  |  |  |
|  |  |  | N#Cc1ccc(N2CCN(Cc3ccc(COc4cccc5c4CN([C@H]4CCC(=O)NC4=O)C5=O)cc3)CC2)c(F)c1 [Compound 2, (S)-4-(4-(4-(((2-(2,6-dioxopiperidin-3-yl)-1-oxoisoindolin-4-yl)oxy)methyl)benzyl)piperazin-1-yl)-3-fluorobenzonitrile] |  | 25 | can overcome this mutation | sufficiently recruits Ikaros Zf 2-3 |
|  |  |  | Nc1cccc2c1C(=O)N(C1CCC(=O)NC1=O)C2=O (stereo not drawn) [Pomalidomide, reference compound] |  |  | exclusively substrate-free open conformers; also recorded: cannot close | insufficient |

Reference: patent US20250052749A1, “SYSTEMS AND METHODS OF SELECTING COMPOUNDS THAT INDUCE CONFORMATIONAL CHANGES IN MUTANT CEREBLON” (BRISTOL-MYERS SQUIBB COMPANY, priority 2021, published 2025)
